{"source": "patent US9241484B2", "about": "“Compositions of dibromomalonamide and their use as biocides” (Dow Global Technologies LLC, priority 2011, dated 2016)"}
{"test_system": "mixture of Pseudomonas aeruginosa, Klebsiella pneumoniae, Staphylococcus aureus, and Bacillus subtilis", "test": "Growth inhibition assay (microtiter plate-based synergy assay)", "settings": "active used alone; dilute mineral salts medium pH 7.5; 37° C., 24 hr; OD580", "units": {"I90 value (minimum concentration to result in at least 90% inhibition of growth)": "mg/L"}, "source_text": "Growth Inhibition Assay. […] Regardless of the mechanism of action, the impact of a biocide (or combination of biocides) can be measured over time on the basis of an increase in the size of the community.\nThe assay measures the efficacy of one or more biocides at preventing growth of a consortium of bacteria in a dilute mineral salts medium. The medium contains (in mg/l) the following components: FeCl3.6H2O (1); CaCl2.2H2O (10); MgSO4.7H2O (22.5); (NH4)2SO4 (40); KH2PO4 (10); K2HPO4 (25.5); Yeast Extract (10); and glucose (100). After all components are added to deionized water, the pH of the medium is adjusted to 7.5. Following filter sterilization, aliquots are dispensed in 100 μl quantities to sterile microtiter plate wells. Dilutions of 2,2-dibromomalonamide (“DBMAL”) and/or “Biocide B” are then added to the microtiter plate. After preparing the combinations of actives as illustrated below, each well is inoculated with 100 μl of a cell suspension containing ca. 1×10^6 cells per milliliter of a mixture of Pseudomonas aeruginosa, Klebsiella pneumoniae, Staphylococcus aureus, and Bacillus subtilis. The final total volume of medium in each well is 300 μl. Once prepared as described herein, the concentration of each active ranges from 25 ppm to 0.195 ppm as illustrated in Table 1. The resulting matrix allows testing of eight concentrations of each active and 64 combinations of actives in the ratios (of actives).\nImmediately after the microtiter plates are prepared, the optical density (OD) readings for each well is measured at 580 nm and the plates are then incubated at 37° C. for 24 hr. After the incubation period, the plates are gently agitated before OD580 values are collected. The OD580 values at T0 are subtracted from T24 values to determine the total amount of growth (or lack thereof) that occurs. These values are used to calculate the percent inhibition of growth caused by the presence of each biocide and each of the 64 combinations. A 90% inhibition of growth is used as a threshold for calculating synergy index (SI) values with the following equation: Synergy Index=MDBMAL/CDBMAL+MB/CB\nwhere • CDBMAL: Concentration of DBMAL required to inhibit ≧90% of bacterial growth when used alone • CB: Concentration of biocide (B) required to inhibit ≧90% of bacterial growth when used alone. • MDBMAL: Concentration of DBMAL required to inhibit ≧90% of bacterial growth when used in combination with biocide (B). • MB: Concentration of biocide (B) required to inhibit ≧90% of bacterial growth when used in combination with DBMAL The SI values are interpreted as follows: • SI<1: Synergistic combination • SI=1: Additive combination • SI>1: Antagonistic combination\nIn the Examples below, the amounts of biocides in the solution are measured in mg per liter of solution (mg/l). Since solution densities are approximately 1.00, the mg/l measurement corresponds to weight and can be expressed as parts per million (ppm). Both units may therefore be used interchangeably in the Examples."}
{"compound": "NC(=O)C(Br)(Br)C(N)=O", "note": "[DBMAL, 2,2-dibromomalonamide]", "I90 value (minimum concentration to result in at least 90% inhibition of growth)": 6.25}
{"compound": "OBr", "note": "[HOBr, hypobromous acid]", "I90 value (minimum concentration to result in at least 90% inhibition of growth)": 12.5}
{"compound": "CC1(C)C(=O)N(Br)C(=O)N1Br", "note": "[DBDMH, dibromodimethylhydantoin]", "I90 value (minimum concentration to result in at least 90% inhibition of growth)": 3.13}
{"compound": "OCl", "note": "[HOCl, hypochlorous acid]", "I90 value (minimum concentration to result in at least 90% inhibition of growth)": 0.78}
{"compound": "monochlorodimethylhydantoin [MCDMH]", "I90 value (minimum concentration to result in at least 90% inhibition of growth)": 3.13}
{"compound": "CC1(C)C(=O)N(Cl)C(=O)N1Cl", "note": "[DCDMH, dichlorodimethylhydantoin]", "I90 value (minimum concentration to result in at least 90% inhibition of growth)": 0.78}
